In ChEMBL document CHEMBL1201862, “PubChem BioAssay data set” (2004):
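Exposure lasted 48 hours, with cells grown in 96-well plates and compounds tested at five concentrations. The concentration for 50% growth inhibition is given as GI50.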 Calls of active or inactive are those of the source. No stated cut-off is given here; in the data, active = GI50 up to about 1.1 µM and inactive = higher.

Columns and labels:
Assay in all cases: DTP human tumour cell line panel, 48 h
SW-620 = test system: SW-620
HCC 2998 = test system: HCC 2998
NCI-H460 = test system: NCI-H460
OVCAR-4 = test system: OVCAR-4
HL-60 = test system: HL-60
SN12C = test system: SN12C
U-251 = test system: U-251
EKVX = test system: EKVX
LOX IMVI = test system: LOX IMVI
K562 = test system: K562
OVCAR-8 = test system: OVCAR-8
RPMI-8226 = test system: RPMI-8226
SNB-19 = test system: SNB-19
HCT-116 = test system: HCT-116
M14 = test system: M14
CCRF-CEM = test system: CCRF-CEM
MCF7 = test system: MCF7
NCI-H226 = test system: NCI-H226
PC-3 = test system: PC-3

Q: `COc1cc(OC)c2c(O)cc(CC(C)O)cc2c1` (configuration not stated) was tested. Which GI50 (SW-620) did it give?
A: > 100 µM (inactive)

Q: And the GI50 (HCC 2998)?
A: > 100 µM (inactive)

Q: And the GI50 (NCI-H460)?
A: > 100 µM (inactive)

Q: What about the GI50 (OVCAR-4) of the same compound?
A: > 100 µM (inactive)

Q: And the GI50 (HL-60)?
A: 78.9 µM (inactive)

Q: And the GI50 (SN12C)?
A: > 100 µM (inactive)

Q: And the GI50 (U-251)?
A: 91.4 µM (inactive)

Q: And the GI50 (EKVX)?
A: > 100 µM (inactive)

Q: What about the GI50 (LOX IMVI) of the same compound?
A: > 100 µM (inactive)

Q: What about the GI50 (K562) of the same compound?
A: > 100 µM (inactive)

Q: And the GI50 (OVCAR-8)?
A: > 100 µM (inactive)

Q: And the GI50 (RPMI-8226)?
A: > 100 µM (inactive)

Q: What about the GI50 (SNB-19) of the same compound?
A: > 100 µM (inactive)

Q: What about the GI50 (HCT-116) of the same compound?
A: > 100 µM (inactive)

Q: And the GI50 (M14)?
A: > 100 µM (inactive)

Q: And the GI50 (CCRF-CEM)?
A: > 100 µM (inactive)

Q: What does the source list for `CCC1=CC2CN3CCc4c([nH]c5ccccc45)C(C(=O)OC)(C2)C13` (configuration not stated)?
A: GI50 (SW-620): 41.9 µM (inactive); GI50 (HCC 2998): 48.3 µM (inactive); GI50 (NCI-H460): 52.6 µM (inactive); GI50 (OVCAR-4): 37.2 µM (inactive); GI50 (HL-60): 36.7 µM (inactive); GI50 (SN12C): 47.4 µM (inactive); GI50 (U-251): 7.26 µM (inactive); GI50 (MCF7): 44.6 µM (inactive); GI50 (EKVX): 36.7 µM (inactive); GI50 (LOX IMVI): 61.8 µM (inactive); GI50 (K562): 39.2 µM (inactive); GI50 (OVCAR-8): 11 µM (inactive); GI50 (RPMI-8226): 18.5 µM (inactive); GI50 (NCI-H226): 11 µM (inactive); GI50 (SNB-19): 46 µM (inactive); GI50 (HCT-116): 35.6 µM (inactive); GI50 (CCRF-CEM): 50.5 µM (inactive)

Q: Which GI50 (SW-620) does the source give for `COc1cccc2c1C(=O)c1c(O)c3c(c(O)c1C2=O)C[C@](O)(C(=O)CO)CC3OC1CC(N)C(OC2CCCCO2)C(C)O1` (some centres not stated) here?
A: 0.0598 µM (active)

Q: And the GI50 (HCC 2998)?
A: 0.621 µM (active)

Q: And the GI50 (NCI-H460)?
A: < 0.01 µM (active)

Q: And the GI50 (OVCAR-4)?
A: 0.659 µM (active)

Q: And the GI50 (HL-60)?
A: < 0.01 µM (active)

Q: And the GI50 (SN12C)?
A: 0.148 µM (active)

Q: What about the GI50 (U-251) of the same compound?
A: 0.0658 µM (active)

Q: What about the GI50 (MCF7) of the same compound?
A: 0.0311 µM (active)

Q: What about the GI50 (EKVX) of the same compound?
A: 0.916 µM (active)

Q: What about the GI50 (LOX IMVI) of the same compound?
A: 0.232 µM (active)

Q: And the GI50 (K562)?
A: 0.188 µM (active)

Q: What about the GI50 (OVCAR-8) of the same compound?
A: 0.267 µM (active)

Q: And the GI50 (RPMI-8226)?
A: 0.112 µM (active)

Q: And the GI50 (NCI-H226)?
A: 0.0805 µM (active)

Q: What about the GI50 (SNB-19) of the same compound?
A: 0.0948 µM (active)

Q: And the GI50 (HCT-116)?
A: 0.0659 µM (active)

Q: What about the GI50 (CCRF-CEM) of the same compound?
A: < 0.0375 µM (active)

Q: How did the GI50 (SW-620) turn out when `NC1=NC(c2ccccc2)CC(c2cc(Cl)cc(Br)c2O)=N1` (configuration not stated) was run?
A: 8.2 µM (inactive)

Q: What about the GI50 (HCC 2998) of the same compound?
A: 13.6 µM (inactive)

Q: And the GI50 (NCI-H460)?
A: 12.4 µM (inactive)

Q: And the GI50 (OVCAR-4)?
A: 15.4 µM (inactive)

Q: What about the GI50 (HL-60) of the same compound?
A: 3.28 µM (inactive)

Q: And the GI50 (SN12C)?
A: 13.4 µM (inactive)

Q: And the GI50 (U-251)?
A: 12.5 µM (inactive)

Q: What about the GI50 (MCF7) of the same compound?
A: 2.44 µM (inactive)

Q: And the GI50 (EKVX)?
A: 10.1 µM (inactive)

Q: What about the GI50 (LOX IMVI) of the same compound?
A: 12.7 µM (inactive)

Q: And the GI50 (K562)?
A: 3 µM (inactive)

Q: And the GI50 (OVCAR-8)?
A: 17.1 µM (inactive)

Q: What about the GI50 (RPMI-8226) of the same compound?
A: 7.31 µM (inactive)

Q: What about the GI50 (NCI-H226) of the same compound?
A: 18.9 µM (inactive)

Q: And the GI50 (SNB-19)?
A: 17 µM (inactive)

Q: What about the GI50 (HCT-116) of the same compound?
A: 12.1 µM (inactive)

Q: And the GI50 (M14)?
A: 14.7 µM (inactive)

Q: What about the GI50 (CCRF-CEM) of the same compound?
A: 7.71 µM (inactive)

Q: Which results are given for `Cn1cc2ccccc2c1-c1nc(F)nc(Nc2ccc(N)cc2)n1`?
A: GI50 (SW-620): 14.8 µM (inactive); GI50 (HCC 2998): 18 µM (inactive); GI50 (NCI-H460): 13.5 µM (inactive); GI50 (OVCAR-4): 23.1 µM (inactive); GI50 (HL-60): 22.3 µM (inactive); GI50 (SN12C): 17.2 µM (inactive); GI50 (U-251): 8.28 µM (inactive); GI50 (EKVX): 23.3 µM (inactive); GI50 (LOX IMVI): 12.4 µM (inactive); GI50 (K562): 8.63 µM (inactive); GI50 (OVCAR-8): 21 µM (inactive); GI50 (RPMI-8226): 13.3 µM (inactive); GI50 (NCI-H226): 16.5 µM (inactive); GI50 (SNB-19): 29.3 µM (inactive); GI50 (HCT-116): 15.5 µM (inactive); GI50 (M14): 13.6 µM (inactive); GI50 (CCRF-CEM): 12.7 µM (inactive)

Q: Which results are given for `O=c1c2cn[nH]c2nc2scc(-c3ccc(Cl)cc3)n12`?
A: GI50 (SW-620): > 100 µM (inactive); GI50 (HCC 2998): > 100 µM (inactive); GI50 (NCI-H460): > 100 µM (inactive); GI50 (PC-3): > 100 µM (inactive); GI50 (OVCAR-4): > 100 µM (inactive); GI50 (SN12C): > 100 µM (inactive); GI50 (U-251): > 100 µM (inactive); GI50 (MCF7): > 100 µM (inactive); GI50 (EKVX): > 100 µM (inactive); GI50 (LOX IMVI): > 100 µM (inactive); GI50 (K562): > 100 µM (inactive); GI50 (OVCAR-8): > 100 µM (inactive); GI50 (RPMI-8226): > 100 µM (inactive); GI50 (NCI-H226): > 100 µM (inactive); GI50 (SNB-19): > 100 µM (inactive); GI50 (HCT-116): > 100 µM (inactive); GI50 (M14): > 100 µM (inactive); GI50 (CCRF-CEM): > 100 µM (inactive)

Q: Which results are given for `CC1=C2N3C[C@@H](n4c(=O)n(C)c(=O)n43)C23CCC1n1c(=O)n(C)c(=O)n13`?
A: GI50 (SW-620): 21.9 µM (inactive); GI50 (HCC 2998): 7.85 µM (inactive); GI50 (NCI-H460): > 100 µM (inactive); GI50 (OVCAR-4): > 100 µM (inactive); GI50 (HL-60): > 100 µM (inactive); GI50 (SN12C): > 100 µM (inactive); GI50 (EKVX): > 100 µM (inactive); GI50 (LOX IMVI): 52.8 µM (inactive); GI50 (K562): 61 µM (inactive); GI50 (OVCAR-8): > 100 µM (inactive); GI50 (RPMI-8226): 42.7 µM (inactive); GI50 (NCI-H226): > 100 µM (inactive); GI50 (SNB-19): > 100 µM (inactive); GI50 (M14): > 100 µM (inactive); GI50 (CCRF-CEM): > 100 µM (inactive)

Q: For `Nc1ncnc2c(C3OC(CO)C(O)C3O)n[nH]c12` (configuration not stated), which GI50 (SW-620) is on record?
A: 0.106 µM (active)

Q: What about the GI50 (HCC 2998) of the same compound?
A: 0.0375 µM (active)

Q: And the GI50 (NCI-H460)?
A: 0.0826 µM (active)

Q: And the GI50 (OVCAR-4)?
A: 0.582 µM (active)

Q: What about the GI50 (HL-60) of the same compound?
A: 0.045 µM (active)

Q: And the GI50 (SN12C)?
A: 0.0652 µM (active)

Q: What about the GI50 (U-251) of the same compound?
A: 2.53 µM (inactive)

Q: What about the GI50 (MCF7) of the same compound?
A: 0.0698 µM (active)

Q: And the GI50 (EKVX)?
A: 0.0646 µM (active)

Q: And the GI50 (LOX IMVI)?
A: 0.0647 µM (active)

Q: What about the GI50 (K562) of the same compound?
A: 0.0741 µM (active)

Q: What about the GI50 (RPMI-8226) of the same compound?
A: 0.159 µM (active)

Q: And the GI50 (SNB-19)?
A: 0.211 µM (active)

Q: And the GI50 (HCT-116)?
A: 0.0767 µM (active)
